Results: ChEMBL document CHEMBL4270610, “Pyrrolopyrimidines: An update on recent advancements in their medicinal attributes” (Eur J Med Chem, 2018)
In brackets after ≈: the same amount, converted by molar mass.

Experiments:
Tetrahymena = assay: Protozoacidal activity against Tetrahymena; format: functional
[1] = molecular target: Proto-oncogene tyrosine-protein kinase Src (Homo sapiens) (UniProt P12931); assay: Inhibition of Src (unknown origin) at 0.1 mM using Src-family kinase bisamide rhodamine 110 peptide substrate after 1 hr by fluorescence assay relative to control
Chain of Proto-oncogene tyrosine-protein kinase Src (Homo sapiens) (P12931 2-536 limits assumed): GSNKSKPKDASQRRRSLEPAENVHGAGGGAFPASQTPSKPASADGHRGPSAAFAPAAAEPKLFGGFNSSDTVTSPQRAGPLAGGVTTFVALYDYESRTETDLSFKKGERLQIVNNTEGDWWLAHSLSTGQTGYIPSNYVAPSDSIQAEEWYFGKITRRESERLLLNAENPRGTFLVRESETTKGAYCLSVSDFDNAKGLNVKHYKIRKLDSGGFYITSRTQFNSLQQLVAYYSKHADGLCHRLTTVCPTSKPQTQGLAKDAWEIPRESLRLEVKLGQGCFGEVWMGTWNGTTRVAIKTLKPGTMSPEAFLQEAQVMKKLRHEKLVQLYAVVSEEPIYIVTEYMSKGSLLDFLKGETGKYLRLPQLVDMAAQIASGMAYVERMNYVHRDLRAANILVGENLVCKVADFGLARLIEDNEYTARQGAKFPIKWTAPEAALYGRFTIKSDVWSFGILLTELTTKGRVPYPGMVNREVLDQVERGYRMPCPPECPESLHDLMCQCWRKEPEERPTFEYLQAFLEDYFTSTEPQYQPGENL

[2] = molecular target: T1, Tyrosine-protein kinase Fyn (Homo sapiens, UniProt P06241); assay: Inhibition of Fyn (unknown origin) at 0.1 mM using Src-family kinase bisamide rhodamine 110 peptide substrate after 1 hr by fluorescence assay relative to control
Target sequence in this assay (P06241 2-537 limits assumed): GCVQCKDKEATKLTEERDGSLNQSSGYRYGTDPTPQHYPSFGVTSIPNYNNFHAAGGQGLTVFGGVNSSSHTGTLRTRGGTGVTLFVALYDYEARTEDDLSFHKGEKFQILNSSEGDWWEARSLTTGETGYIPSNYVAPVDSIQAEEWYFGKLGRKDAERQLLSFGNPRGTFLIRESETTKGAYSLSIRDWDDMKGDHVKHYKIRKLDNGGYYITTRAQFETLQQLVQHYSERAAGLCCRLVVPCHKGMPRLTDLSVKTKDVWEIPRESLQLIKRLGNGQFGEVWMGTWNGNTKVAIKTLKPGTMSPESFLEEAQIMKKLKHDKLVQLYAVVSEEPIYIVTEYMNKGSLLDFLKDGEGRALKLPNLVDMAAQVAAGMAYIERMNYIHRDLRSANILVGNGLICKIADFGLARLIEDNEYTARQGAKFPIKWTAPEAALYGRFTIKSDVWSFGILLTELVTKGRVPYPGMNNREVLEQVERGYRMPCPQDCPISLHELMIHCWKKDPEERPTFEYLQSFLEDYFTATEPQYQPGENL

[3] = molecular target: T2, Tyrosine-protein kinase Lyn (Homo sapiens, UniProt P07948); assay: Inhibition of Lyn (unknown origin) at 0.1 mM using Src-family kinase bisamide rhodamine 110 peptide substrate after 1 hr by fluorescence assay relative to control
Target sequence in this assay (P07948 2-512 limits assumed): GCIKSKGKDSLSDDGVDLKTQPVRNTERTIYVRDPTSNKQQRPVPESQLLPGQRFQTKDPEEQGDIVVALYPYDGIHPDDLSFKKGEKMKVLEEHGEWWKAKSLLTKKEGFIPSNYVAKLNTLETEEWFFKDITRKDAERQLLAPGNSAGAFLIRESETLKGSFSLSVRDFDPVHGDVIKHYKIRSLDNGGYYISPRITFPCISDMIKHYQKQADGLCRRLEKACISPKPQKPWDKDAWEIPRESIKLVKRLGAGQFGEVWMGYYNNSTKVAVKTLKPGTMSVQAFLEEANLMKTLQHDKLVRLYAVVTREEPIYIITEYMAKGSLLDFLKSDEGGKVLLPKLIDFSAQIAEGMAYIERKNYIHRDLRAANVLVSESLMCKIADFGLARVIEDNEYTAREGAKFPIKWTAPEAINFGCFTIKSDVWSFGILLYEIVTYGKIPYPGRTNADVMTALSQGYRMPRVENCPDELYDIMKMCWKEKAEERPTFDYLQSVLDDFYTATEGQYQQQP

[4] = molecular target: T1, Tyrosine-protein kinase Fyn; assay: Inhibition of Fyn (unknown origin) using Src-family kinase bisamide rhodamine 110 peptide substrate after 1 hr by fluorescence assay
Target sequence in this assay (P06241 whole entry): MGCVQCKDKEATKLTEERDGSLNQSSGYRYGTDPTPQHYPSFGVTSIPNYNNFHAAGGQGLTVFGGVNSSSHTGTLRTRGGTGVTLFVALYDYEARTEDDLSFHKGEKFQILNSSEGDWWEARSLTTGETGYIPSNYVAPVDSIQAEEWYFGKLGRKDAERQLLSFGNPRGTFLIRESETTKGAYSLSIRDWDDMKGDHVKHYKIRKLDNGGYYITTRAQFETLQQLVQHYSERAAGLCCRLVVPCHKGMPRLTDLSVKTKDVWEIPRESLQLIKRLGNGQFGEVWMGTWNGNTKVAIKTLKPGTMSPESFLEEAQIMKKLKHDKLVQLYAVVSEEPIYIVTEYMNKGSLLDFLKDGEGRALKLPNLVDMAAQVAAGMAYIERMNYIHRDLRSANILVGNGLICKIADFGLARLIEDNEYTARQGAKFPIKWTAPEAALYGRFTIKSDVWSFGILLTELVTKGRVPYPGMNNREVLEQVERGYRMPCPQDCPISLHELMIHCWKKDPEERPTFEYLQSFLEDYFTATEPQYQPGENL

HL-60 = assay: Antiproliferative activity against human HL60 cells; format: functional, cell-based
Jurkat E6.1 = assay: Antiproliferative activity against human Jurkat E6-1 cells; format: functional, cell-based
Newcastle disease virus = assay: Antiviral activity against Newcastle disease virus; format: functional; conditions: avian paramyxovirus 1
[5] = test system: unidentified influenza virus; assay: Antiviral activity against Influenza virus H5N1; format: functional
Rattus norvegicus [6] = assay: Inhibition of LPS-induced TNFalpha level in Sprague-Dawley rat serum at 25 mg/kg, po pretreated for 1 hr followed by LPS treatment measured after 90 mins by ELISA relative to control; format: functional
Escherichia coli = assay: Antibacterial activity against Escherichia coli; format: functional
Salmonella typhimurium = assay: Antibacterial activity against Salmonella typhimurium; format: functional, Salmonella enterica subsp. enterica serovar Typhimurium; conditions: Salmonella enterica
Rattus norvegicus [7] = assay: Anti-hyperglycemic activity in Wistar albino rat sucrose loaded model assessed as reduction in blood glucose level at 4 mg/kg equiv of glimepiride pretreated orally for 30 mins followed by sucrose challenge and measured up to 120 mins post sucrose challenge relative to control; format: functional; parameters: scale not given: the % may be the effect or the level left
Rattus norvegicus [8] = assay: Anti-hyperglycemic activity in streptozotocin-induced Wistar albino rat diabetic model assessed as reduction in blood glucose level at 4 mg/kg equiv of glimepiride treated orally measured up to 6 hrs post dose by glucometric method relative to control; format: functional; parameters: scale not given: the % may be the effect or the level left
[9] = molecular target: T2, Tyrosine-protein kinase Lyn; assay: Inhibition of Lyn (unknown origin) using Src-family kinase bisamide rhodamine 110 peptide substrate after 1 hr by fluorescence assay
Target sequence in this assay (P07948 whole entry): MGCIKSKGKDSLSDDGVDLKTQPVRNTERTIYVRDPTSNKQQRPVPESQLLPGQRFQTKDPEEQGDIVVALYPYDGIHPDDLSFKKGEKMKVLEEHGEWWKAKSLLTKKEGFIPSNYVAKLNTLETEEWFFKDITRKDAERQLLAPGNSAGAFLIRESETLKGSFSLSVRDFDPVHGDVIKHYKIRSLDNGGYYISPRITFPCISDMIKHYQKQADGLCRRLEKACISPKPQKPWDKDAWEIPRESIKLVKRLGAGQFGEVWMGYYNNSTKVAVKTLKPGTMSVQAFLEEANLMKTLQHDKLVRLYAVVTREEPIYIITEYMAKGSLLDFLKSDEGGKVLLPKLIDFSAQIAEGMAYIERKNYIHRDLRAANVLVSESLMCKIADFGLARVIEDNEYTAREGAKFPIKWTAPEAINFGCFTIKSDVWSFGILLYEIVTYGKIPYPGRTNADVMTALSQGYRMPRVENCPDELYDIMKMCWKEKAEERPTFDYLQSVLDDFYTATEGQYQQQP

**Q.** `C[C@H](Nc1ncnc2[nH]c(-c3ccc(O)cc3)cc12)c1ccccc1` was tested. Which MIC (Tetrahymena) did it give?
**A.** 8 µg/mL (≈ 24.2 µM)

**Q.** Which inhibition [1] does the source give for `Nc1nc2[nH]cc(CNC(=O)COc3ccc(Cl)cc3)c2c(=O)[nH]1` here?
**A.** 60%

**Q.** What about the inhibition [2] of the same compound?
**A.** 36%

**Q.** What about the inhibition [3] of the same compound?
**A.** 28%

**Q.** `CN1CCN([C@H]2CC[C@H](n3cc(-c4ccc(Oc5ccccc5)cc4)c4c(N)ncnc43)CC2)CC1` was tested. Which IC50 [4] did it give?
**A.** 0.3 nM

**Q.** How did the IC50 (HL-60) turn out when `Nc1ccn([C@@H]2O[C@H](CO)[C@@H](O)[C@@H]2O)c(=O)n1` [CYTARABINE] was run?
**A.** 185 nM

**Q.** What about the IC50 (Jurkat E6.1) of the same compound?
**A.** 18 nM

**Q.** Which MIC (Tetrahymena) does the source give for `C[C@@H](Nc1ncnc2[nH]c(-c3ccc(O)cc3)cc12)c1cccc2ccccc12` here?
**A.** 32 µg/mL (≈ 84.1 µM)

**Q.** With `NC(=O)c1ncn([C@@H]2O[C@H](CO)[C@@H](O)[C@H]2O)n1` [RIBAVIRIN] as the compound, how does the MIC (Newcastle disease virus) read?
**A.** 3 µg/mL (≈ 12.3 µM)

**Q.** And the MIC [5]?
**A.** 6 µg/mL (≈ 24.6 µM)

**Q.** For `O=c1c2cc(-c3ccccc3)n(-c3ccccc3)c2ncn1CC(O)CO` (centres undefined), which MIC [5] is on record?
**A.** 3.6 µg/mL (≈ 9.96 µM)

**Q.** Which inhibition in vivo at 25 mg/kg (Rattus norvegicus [6]) does the source give for `C[C@@H]1C[C@H]2[C@@H]3CCC4=CC(=O)C=C[C@]4(C)[C@@]3(F)[C@@H](O)C[C@]2(C)[C@@]1(O)C(=O)CO` [DEXAMETHASONE] here?
**A.** 91%

**Q.** For `CCCCCc1ccc(-c2cc3cn([C@@H]4O[C@H](CO)[C@@H](O)[C@@H]4O)c(=O)nc3[nH]2)cc1`, which IC50 (HL-60) is on record?
**A.** 68000 nM

**Q.** What about the IC50 (Jurkat E6.1) of the same compound?
**A.** 61000 nM

**Q.** With `COc1ccc(-c2cc3c(N[C@H](C)c4cccc5ccccc45)ncnc3[nH]2)cc1` as the compound, how does the MIC (Tetrahymena) read?
**A.** 32 µg/mL (≈ 81.1 µM)

**Q.** `O=c1[nH]cnc2c1cc(-c1ccccc1)n2-c1ccccc1` was tested. Which MIC (Newcastle disease virus) did it give?
**A.** 2.7 µg/mL (≈ 9.4 µM)

**Q.** What about the MIC (Escherichia coli) of the same compound?
**A.** 2.8 µg/mL (≈ 9.75 µM)

**Q.** And the MIC (Salmonella typhimurium)?
**A.** 2.8 µg/mL (≈ 9.75 µM)

**Q.** With `C[C@H](Nc1ncnc2[nH]c(-c3ccc(O)cc3)cc12)c1ccc(Br)cc1` as the compound, how does the MIC (Tetrahymena) read?
**A.** 8 µg/mL (≈ 19.5 µM)

**Q.** What does the source list for `Cc1ccc(C(=O)NCc2c[nH]c3nc(N)[nH]c(=O)c23)s1`?
**A.** inhibition [1]: 71%; inhibition [2]: 41%; inhibition [3]: 40%

**Q.** Which results are given for `Cc1nc(Cl)c2c(-c3ccccc3)c(-c3ccccc3)n(-c3c(C)n(C)n(-c4ccccc4)c3=O)c2n1`?
**A.** Activity (Rattus norvegicus [7]): 13%; Activity (Rattus norvegicus [8]): 11.2%

**Q.** Which MIC [5] does the source give for `O=c1c2cc(-c3ccc(Br)cc3)n(-c3ccccc3)c2ncn1CCOCCO` here?
**A.** 4.5 µg/mL (≈ 9.9 µM)

**Q.** Which results are given for `O=c1[nH]cnc2c1cc(-c1ccc(Cl)cc1)n2-c1ccccc1`?
**A.** MIC (Escherichia coli): 3.2 µg/mL (≈ 9.95 µM); MIC (Salmonella typhimurium): 3.2 µg/mL (≈ 9.95 µM)

**Q.** For `COc1cccc(-c2cn(-c3ccc(CCN4CCC(O)CC4)cc3)c3ncnc(N)c23)c1`, which IC50 [9] is on record?
**A.** 0.4 nM

**Q.** For `CCOc1ccc(NC(=O)Cn2cnc3c(cc(-c4ccccc4)n3-c3ccncc3)c2=O)cc1`, which inhibition in vivo at 25 mg/kg (Rattus norvegicus [6]) is on record?
**A.** 96%

**Q.** Which MIC [5] does the source give for `O=c1c2cc(-c3ccccc3)n(-c3ccccc3)c2ncn1CCOCCO` here?
**A.** 3.8 µg/mL (≈ 10.1 µM)

**Q.** For `COc1ccc(CCCC(=O)NCc2c[nH]c3nc(N)[nH]c(=O)c23)cc1OC`, which inhibition [1] is on record?
**A.** 54%

**Q.** What about the inhibition [2] of the same compound?
**A.** 38%

**Q.** What about the inhibition [3] of the same compound?
**A.** 32%

**Q.** How did the MIC [5] turn out when `O=c1c2cc(-c3ccc(Br)cc3)n(-c3ccccc3)c2ncn1CC(O)CO` (centres undefined) was run?
**A.** 4.1 µg/mL (≈ 9.31 µM)
